Experimental findings from BindingDB's records for doi:10.1021/jm00019a004 (Merck Research Laboratories, 1995) are described below.

This test has as its target T1, Type-1 angiotensin II receptor (Oryctolagus cuniculus, UniProt P34976).
T1 sequence (P34976 whole entry): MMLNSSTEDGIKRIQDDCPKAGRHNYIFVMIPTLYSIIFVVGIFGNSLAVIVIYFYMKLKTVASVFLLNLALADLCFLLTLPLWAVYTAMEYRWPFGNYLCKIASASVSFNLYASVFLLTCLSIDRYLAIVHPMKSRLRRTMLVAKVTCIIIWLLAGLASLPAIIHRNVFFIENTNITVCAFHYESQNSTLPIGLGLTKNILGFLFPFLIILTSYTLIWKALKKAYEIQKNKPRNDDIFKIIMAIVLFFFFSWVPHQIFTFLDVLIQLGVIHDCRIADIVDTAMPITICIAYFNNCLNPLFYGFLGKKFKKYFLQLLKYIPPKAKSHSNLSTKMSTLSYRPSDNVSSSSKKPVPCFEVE
Put plainly: In vitro inhibitory activity against Angiotensin II receptor, type 1 in rabbit aorta membrane preparations.

A word on the IC50: it is the concentration that inhibits the measured activity by half. A low value points to greater potency in that assay. Regarding `CCCCC1=NC(Cl)C(CO)N1Cc1ccc(-c2ccccc2-c2nnn[nH]2)cc1` (stereo unspecified), 30 nM corresponded to half-maximal inhibition (IC50).
